# Source: patent US10960088B2, “Macrocycles, cobalt and iron complexes of same, and methods of making and using same” (The Research Foundation for The State University of New York, priority 2013, dated 2021)
# How the values were obtained:
# [1] = Exchange rate constants (omega plot); conditions: 10 mM complex; for kex: 20 mM HEPES pH 7.4, 100 mM NaCl, B1 8-24 μT, presat 4 s, 37° C., 11.7 T
# Experimental: Exchange rate constants were calculated following a previously reported procedure. Measurements of on-resonance (Mz) and off-resonance (Mo) were acquired at different presaturation pulse powers between 350-1000 Hz (8-24 μT) applied for 4 seconds at 37° C. The exchange rate constant (kex) is calculated from the x-intercept from the plot of Mz/(Mo−Mz) against 1/ω1^2 (ω1 in rad/s). The rate constant, kex, is converted into units of s^−1. Samples contained 10 mM Co^II complex, 20 mM HEPES pH 7.4, and 100 mM NaCl.
# The exchange rate constants were calculated by using a previously reported procedure. The magnetization of the on-resonance (Mz) and off-resonance (Mo) were acquired at different pre-saturation pulse powers between 350-1090 Hz applied for 4 seconds. To calculate the exchange rate constant (kb), the x-intercept (−1/kb^2) was obtained from the plot of Mz/(Mo−Mz) against 1/ω1^2 (ω1 in rad/s). Samples contained 16 mM [Co(TPT)]Cl2, 200 mM NaCl, and 40 mM MES or HEPES at pH 6.4-7.5. Measurements were carried out at 37° C.
# [2] = CEST MR phantom imaging on 4.7 T scanner; conditions: 4 mM complex, pH 7.4-7.5, 37° C.; for % CEST: 20 mM HEPES, 100 mM NaCl, 4.7 T MRI scanner
# Experimental: CEST MR images were acquired at 4.7 Tesla preclinical MR scanner using a 35 mm transceiver coil (ParaVision 3.0.2, Bruker Biospin, Billerica, Mass.) as detailed elsewhere. Two spoiled gradient-echo images (TE/TR=2.1/5010 ms, flip angle=90 deg) were acquired at 37° C. after employing a pulse train comprised of five Gauss pulses ([…] for 1 second each, interpulse delay of 200 μs) applied symmetrically about the bulk water resonance.
# Image processing was carried out using in-house software algorithms developed in MATLAB (MathWorks, Natick, Mass.). Each image was normalized to the mean intensity of the buffer/salt phantom, and the mean signal intensity of each compound was sampled. The percent change in signal, or CEST effect (CE), was calculated as: CE=(1−SIon/SIoff)*100%, where SIon and SIoff represent the mean signal intensity of each sample with the pre-saturation pulse applied on- and off-resonance of the exchangeable protons, respectively. CEST images (FIGS. 14, 15) were calculated by determining CE on a pixel-by-pixel basis in MATLAB. To improve visualization of the CEST effect, images were filtered with a spatial averaging filter (kernel size=5×5), background noise was removed using a binary mask of the samples, and a ‘hotiron’ color lookup table was applied. […] Imaging parameters for the FID-FISP acquisition include: matrix=128×128, field of view=3.2×3.2 cm, TE/TR=1.5/3.0 ms, flip angle=90, number of repetitions=20. Processing was carried out as above with the exception that the 20 repetition image datasets were averaged together prior to normalization by the buffer signal intensity. The experiment was repeated with three separate preparations of [Co(CCRM)]^2+.
# CEST images were acquired on a 4.7 Tesla preclinical MR scanner using a 35 mm radiofrequency coil and the ParaVision 3.0.2 research platform (Bruker Biospin, Billerica, Mass.). A pair of gradient-echo MR images were acquired at either 37° C. with a pre-saturation pulse train comprised of five 1 second Gauss pulses (12 μT, 200 μs interpulse delay) applied symmetrically about the bulk water resonance (+/−135 ppm). Other pertinent acquisition parameters include: echo time/repetition time=2.1/5010 ms, flip angle=90 deg, acquisition matrix=160×160, slice thickness=2 mm, field of view=32×32 mm, averages=1.
# To determine the CEST effect, each image was normalized to the signal intensity of the buffer and salt-only phantom and the normalized image intensity of each phantom was sampled using commercially available software (Analyze 7.0, AnalyzeDirect Inc., Overland Park, Kans.). The percent loss of signal due to […] exchange was calculated using the following equation: % CEST=1−SIon/SIoff, eq. 9 where SIon and SIoff are the image intensities of each sample acquired with on-resonance and off-resonance pre-saturation pulses, respectively. To create the CEST image (FIG. 46), raw k-space data was zero-filled to a 512×512 matrix, reconstructed to spatial domain, filtered with a spatial low-pass filter (kernel size: 11×11) to improve signal-to-noise, and then normalized by image intensity of the buffer and salt-only phantom. The % CEST effect was calculated pixel-by-pixel using the normalized on/off resonance image pair in MATLAB (MathWorks, Natick, Mass.). Phantoms in the CEST image were isolated using binary masking techniques, and a “hot-iron” pseudocolor lookup table was applied to enhance perceptual contrast between samples.
# [3] = Effective magnetic moment in solution from magnetic susceptibility (NMR); format: physicochemical; conditions: for μeff: 5 mM Co^II complex in D2O; for magnetic moment: 25° C. in D2O
# Experimental: The effective magnetic moment (μeff) was calculated by using a previously known method. 5 mM Co^II complex and 5% t-butanol by volume was placed in a NMR insert while the outer NMR tube contained 5% by volume t-butanol in D2O. The μeff was calculated at 298 K (T) and monitored over a period of 72 hours using the following approach.
# The mass susceptibility of solute (χg) was calculated by obtaining the observed frequency shift of the reference (Δf) in Hz, the spectrometer frequency (f) in Hz, the mass of the substance per cm^3 of solution (m), and the mass susceptibility of solvent D2O (χ0=−0.6466×10^−6 cm^3/g). The last term is neglected due to the minimal contribution to mass susceptibility of solute. The molar susceptibility (χm) is the product of χg multiplied by the molecular weight of the Co^II complex.
# The effective magnetic moment was calculated by using a previously known method. In a typical experiment, oxygen-free solution of 8-20 mM [Co(TPT)]^2+ in deuterium oxide, pD 7.0, containing 5% tert-butanol by volume was placed in an NMR tube, while a reference solution of 5% tert-butanol (v/v) in deuterium oxide, pD 7.0, was placed into NMR tube insert. All solutions of [Co(TPT)]^2+ were purged with argon and kept in the absence of air. The effective magnetic moment (μeff) was calculated at 298 K (T) using the following equations 7-8. In these equations the mass susceptibility of solute (χg) was calculated by obtaining the observed frequency shift of the reference (Δf) in Hz, the spectrometer frequency (f) in Hz, the mass of the substance per cm^3 of the solution (m), and the mass susceptibility of deuterium oxide (χ0=−0.6466×10^−6 cm^3/g). The last term in eq. SI is neglected due to the minimal contribution to mass susceptibility of solute. The molar susceptibility (χm) is the product of χg multiplied by the molecular weight of the [Co(TPT)]Cl2 complex. Reported value of the effective magnetic moment was obtained by averaging of three independent experiments. χg=(−3Δf)/(4πfm)+χ0+[χ0(d0−ds)]/m eq. 7 μeff=2.84(χmT)^1/2 eq. 8
μeff [3],magnetic moment [3],SMILES,"kex, peak at 95 ppm ([1]; peak at 95 ppm, pH 7.4, 37° C.)","kex, peak at 112 ppm ([1]; peak at 112 ppm, pH 7.4, 37° C.)","% CEST, peak at 95 ppm ([2]; peak at 95 ppm, 4.7 T)","% CEST, peak at 112 ppm ([2]; peak at 112 ppm, 4.7 T)",kex [1],% CEST [2]
4.6 µB,4.6 μB,NC(=O)CN1CCCN(CC(N)=O)CCN(CC(N)=O)CCCN(CC(N)=O)CC1.[Co+2] [[Co(CCRM)]^2+],910 s⁻¹,510 s⁻¹,5%,8%,–,–
4.1 µB,4.1 μB,NC(=O)CN1CCOCCOCCN(CC(N)=O)CCOCC1.[Co+2] [[Co(NOPE)]^2+],–,–,–,–,240 s⁻¹,12%
4.5 µB,4.5 μB,NC(=O)CN1CCN(CC(N)=O)CCN(CC(N)=O)CCN(CC(N)=O)CC1.[Co+2] [[Co(TCMC)]^2+],–,–,–,–,300 s⁻¹,12%
5.2 µB,5.2 μB,NC(=O)CN1CCN(CC(N)=O)CCN(CC(N)=O)CC1.[Co+2] [[Co(TCMT)]^2+],–,–,–,–,890 s⁻¹,8%
